Assay results published in patent publication US20100249064A1, “METHODS AND COMPOSITIONS FOR TREATING DISEASES AND CONDITIONS INVOLVING HIGHER MOLECULAR WEIGHT HYALURONAN” (University of Chicago, priority 2007, published 2010).

What was measured:
CD44 = CD44 expression in mouse lung homogenates (immunoblot); type: in vivo
Protocol: Animal Preparation and Treatment. Male C57BL/6J, B6129N2, CD44^−/− or caveolin-1^−/− mice (8-10 weeks, Jackson Laboratories, Bar Harbor, Me.) were anesthetized with intraperitoneal ketamine (150 mg/kg) and acetylpromazine (15 mg/kg) before exposure of the right internal jugular vein via neck incision. LPS (2.5 mg/kg) or water (control) were instilled intratracheally. Four hours later, mice receive high MW HA (1.5 mg/kg) or water control through the internal jugular vein. The animals were allowed to recover for 24 hours after LPS before bronchioalveolar lavage protein and cytokine concentration and/or lung immunohistochemistry/immunoblot analysis (Peng et al., 2004).
Immunoblot analysis of CD44 and Caveolin-1 expression in control, LPS- and HA-treated mouse lung homogenates. CD44 is highly likely to be important in lung disease as CD44−/− mice develop lung fibrosis, inflammatory cell recruitment and accumulation of hyaluronan fragments at sites of lung injury (Teder et al., 2002). […] Caveolin-1 can be differentially regulated in various models of acute lung injury (ALI). Monocrotaline-induced rodent pulmonary hypertension results in a loss of lung EC caveolin-1 expression (Mathew et al., 2004). In contrast, there is no change in pulmonary caveolin-1 expression in lipopolyscaaharide (LPS)-induced sepsis with lung injury (Garrean et al., 2006). […]

hyaluronidase = test: VEGF-induced hyaluronidase expression (immunoblot); type: cell-based, human; conditions: 100 nM HMW-HA, 100 nM VEGF
Protocol: Determination of the role of HMW-HA/CD44 interactions in regulating hyaluronidase activity and angiogenesis in vitro. Human pulmonary microvascular EC (HPMVEC) (Cambrex), grown in EBM-2 complete medium (Cambrex) at 37° C. in a humidified atmosphere of 5% CO2, 95% air, with passages 6-10 used for experimentation was treated with or without 100 nM HMW-HA and/or 100 nM VEGF in the presence or absence of CD44 isoform-specific blocking antibodies (EMD Biosciences), siRNA (scramble, CD44, Hyal-1, Hyal-2, Hyal-3 or Hyal-4) and the potent hyaluronidase inhibitor, L-ascorbic acid 6-hexadecanoate (Botzki et al., 2004) (Sigma). […] Treated EC will either be analyzed for protein expression, hyaluronidase activity or VEGF-induced proliferation, migration or tube formation. […] Cells from the upper and lower chamber were quantitated using the CellTiter96™ MTS assay (Promega, San Luis Obispo, Calif.) and read at 492 nm. % migration was defined as the # of cells in the lower chamber […] the number of cells in both the upper and lower chamber. Each assay was set up in triplicate, repeated at least five times and analyzed statistically by Student's t test (with statistical significance set at P<0.05). […] The in vitro cell proliferation assay was analyzed by measuring increases in cell number using the CellTiter96™ MTS assay (Promega, San Luis Obispo, Calif.) and read at 492 nm. […]

C1INH = C1INH expression in EC (immunoblot); type: cell-based, human; conditions: 100 nM HMW-HA
Protocol: Determination of the role of HMW-HA/HABP2/C1INH interactions in regulating angiogenesis in vitro. Human pulmonary EC (Cambrex), grown in EBM-2 complete medium (Cambrex) at 37° C. in a humidified atmosphere of 5% CO2, 95% air, with passages 6-10 used for experimentation will be treated with or without 100 nM HMW-HA and/or 100 nM VEGF in the presence or absence of HABP2 and/or C1INH overexpression vectors (Origene), exogenous purified recombinant HABP2 polyanion binding domain and/or C1INH (Novus Biologicals) and/or siRNA (scramble, HABP2 or C1INH). For HABP2 protease activity determination, media from HABP2 overexpressing EC (see above) was immunoprecipitated with anti-HABP2 antibody-conjugated Sepharose beads (Sigma). The immunobeads were then extensively washed in 50 mM Borate, pH=8.5 and protease activity was measured using the QuantiCleave™ Protease Assay Kit (Pierce). Briefly, the immunobeads were incubated with succinylated casein for one hour followed by development with TNBSA (2,4,6-trinitrobenzene sulfonic acid) and read at 450 nm.

Question: What does the source list for hyaluronan [HMW-HA]?
Answer: LPS-induced CD44 upregulation in mouse lungs (CD44; C57BL/6J mice, LPS challenged followed by HMW-HA): inhibited LPS-induced CD44 upregulation; CD44 expression in mouse lungs (CD44; HMW-HA alone): no effect on CD44 expression; VEGF-induced hyaluronidase expression (hyaluronidase): inhibited VEGF-induced hyaluronidase expression; C1INH expression in EC (C1INH): increased the expression of the endogenous inhibitor of HABP2, C1INH
